This is an account of results in PMC12189671, “Antioxidant Activity and Cytotoxicity Evaluation of New Catechol Hydrazinyl-Thiazole Derivatives as Potential Protectors in Retinal Degenerative Processes” (Antioxidants, 2025).

Series [1] in a line: Ferrous ions chelation assay (ferrozine). Here is the method: Solutions of the tested compounds or ethylenediaminetetraacetic acid disodium salt (EDTA-Na2), used as a positive control, were thoroughly mixed with 0.5 mL of FeSO4 (0.125 mM) and 0.5 mL of ferrozine (0.315 mM). After a 10-min incubation in the dark at room temperature, the absorbance was measured at λ = 562 nm.

The nature of series [2]: Indirect 1O2 scavenging assay (ICG photo-generator, DPBF probe). The note with it: 10^−5 M ICG and scavenger, 785 nm laser, 100 s. The method, then: The ^1O2 scavenging assay was employed using a previously established indirect protocol from our research group. In brief, indocyanine green (ICG), from Sigma–Aldrich (St. Louis, MO, USA), was utilized to induce ^1O2 production in the presence of 5a and 5b. Ascorbic acid was used as a reference antioxidant agent, and a blank sample without ^1O2 scavengers was prepared. The reaction mixtures were exposed to a Micro Raman System R-3000 (Photonitech, Singapore, Singapore) laser diode,(λ = 785 nm, 190 mW power) for a total time of 100 s. To evaluate the ^1O2 scavenging activity of the compounds 5a,b, the degradation of 1,3-diphenylisobenzofuran (DPBF), obtained from Alfa Aesar (Haverhill, MA, USA), was measured using a V-730 spectrophotometer (Jasco International Co., Ltd., Tokyo, Japan). To determine the ^1O2 quantum yields (Φ(^1O2)) of ICG in the presence of the studied molecules, the following equation was used: Φ(^1O2) = Φ(^1O2) ^ICG × ((S × F^ICG)/(S^ICG × F)), where S represents the slope of the absorbance difference of DPBF over time, F is the absorption correction factor (F = 1 − 10^−OD), and OD is the optical density at the excitation wavelength, λ = 785 nm. The Φ(^1O2) equal to 15.0% of free ICG was used as a reference. The concentrations utilized in the experiment were 0.1 mM for DPBF and 10^−5 M for ICG and the ^1O2 scavengers. Free DPBF was used as a control.
The efficacy of compounds 5a,b against ^1O2 was assessed using an indirect approach. ICG was used as a photo-induced ^1O2 generator alongside DPBF, serving as an indirect chemical probe capable of characterizing ^1O2 release in solution. This setup allowed us to evaluate the ^1O2 scavenging capacity of the tested molecules and compare their activity to a reference compound, specifically ascorbic acid. The samples were exposed to 785 nm laser radiation, and at 10-s intervals after irradiation, their UV-Vis absorption spectra were measured and analyzed (Figure 9). Subsequently, we determined the ^1O2 quantum yields (Φ(^1O2)) of ICG in the presence of 5a,b and ascorbic acid, using the Φ(^1O2) of free ICG of 15.0% as reference.

The nature of series [3]: Ferric Reducing Antioxidant Potential (FRAP) assay. The conditions noted are these: molar equivalents of reference compound. The source says:
The results of the evaluation of the electron ability transfer of the tested compound were expressed as molar equivalents of the reference compound per one mol of the tested compound using the formula: % of control activity=sample absorbance/reference absorbance×100 The Ferric Reducing Antioxidant Potential (FRAP) assay measures the ability of an antioxidant to transfer an electron to Fe^3+, converting it to Fe^2+. […] The solutions were thoroughly mixed in the dark, and their absorbance was measured spectrophotometrically at λ = 593 nm.

Series [4] is described as follows: ABTS radical cation decolorization assay. The conditions noted are these: 10 min incubation, pH 7.4, λ = 734 nm. Here is the method:
The ABTS^•+ (2,2′-azinobis-(3-ethylbenzothiazoline-6-sulfonic acid) decolorization assay, based on the method of Re et al., was performed in the concentration range of 1 to 25 µM according to protocols previously reported by our group. The reagent was prepared in a 0.1 M potassium phosphate buffer (pH 7.4) and activated overnight with MnO2 [89]. Prior to use, the stability of the ABTS^•+ reagent was verified by checking its absorbance at λ = 734 nm over one hour, ensuring a consistent absorption of around 0.7. The mixtures were incubated for 10 min in the dark at room temperature. The absorbance of the samples is given by the remaining unreacted reagent radical, and it is inversely proportional to the amount of ABTS^•+ neutralized. The ABTS^•+ scavenging activity of compounds was calculated using Equation (2).(2) ABTS^•^+ scavenging (%)=control absorbance−sample absorbance/control absorbance×100

Series [5] can be described thus: Cell viability (resazurin) on A549. The class given is cell-based. The conditions noted are these: human, A549 cells; for IC50 at 24 h: A549, 24 h, read-out: 24 h Exposure IC50 (cytotoxicity); for IC50 at 48 h: A549, 48 h, read-out: 48 h Exposure IC50 (cytotoxicity). The source says:
The ARPE-19 cell line was purchased from CLS Cell Lines Service GmbH (Eppelheim, Germany) and cultured in Dulbecco’s modified Eagle’s medium/F-12 (HAM) 1:1 (Biological Industries, Beit, Israel). The medium was supplemented with 10% fetal bovine serum (FBS) (Thermo Fisher Scientific, Waltham, MA, USA) and 1% penicillin-streptomycin (Biosera, Cholet, France). The cancerous cell line A549 was purchased from ATCC (Manassas, VA, USA) and cultivated in high-glucose Dulbecco’s modified Eagle’s medium (DMEM 4.5 g/L). The normal BJ cell line was also purchased from ATCC (Manassas, VA, USA) and was cultivated in low-glucose Dulbecco’s modified Eagle’s medium (DMEM 1 g/L). The media was supplemented in both cases with 10% FBS. Cells were cultured in T75 flasks and incubated at 37 °C in a humidified incubator with 5% CO2 supplementation. For maintenance, the media was changed every 2–3 days, and when the confluence of the flask reached approximately 85%, the cells were either subcultured or further used in the experiments.
ARPE-19 cells were seeded at a density of 2 × 10^4 cells/well and 1 × 10^4 cells/well (suspended in 100 µL) in 96-well plates for 24 h and 48 h, respectively. For the BJ cells, the seeding density was 0.5 × 10^4 cells/well and 0.3 × 10^4 cells/well for 24 h and 48 h, respectively, and for the A549 cells, 1.5 × 10^4 cells/well for 24 h and 0.75 × 10^4 cells/well for 48 h. As cells have different sizes and volumes, the different seeding densities were selected to reach a confluency of 80–90% by the end of the experiments. Cells were further exposed to the synthesized compounds for 24/48 h at concentrations ranging from 12.5 to 500 µM. After the incubation period, the exposure media was removed, the cells were washed with PBS, and further incubated with a 200 µM resazurin solution for 3 h as described in our previous report. The conversion of resazurin to the fluorescent resorufin compound by viable cells was measured at λexcitation = 550; λemission = 600, using SpectraMax iD3 (Molecular Devices, San Jose, CA, USA). The experiments were conducted in biological triplicate, each with a minimum of 3 technical replicates. The measured viability was expressed as relative values to the control (cells exposed only to the vehicle–culture medium containing 0.4% DMSO).

The term IC50 denotes the concentration at which inhibition is half-maximal.

For `C/C=C/C=N/Nc1nc(-c2ccc(O)c(O)c2)cs1.Cl` [Compound 5a, 4-(2-(2-((1E,2E)-but-2-en-1-ylidene)hydrazineyl)thiazol-4-yl)benzene-1,2-diol hydrochloride], the “% of ferrous ions chelation” value in series [1] (50 nM), in series [1] (100 nM), in series [1] (150 nM), in series [1] (175 nM) and in series [1] (200 nM) was “− (less than 5% chelation activity)” each time. In addition, the “^1O2 quantum yield Φ(^1O2) of ICG in the presence of the scavenger” value in series [2] came to 11.1%. The “FRAP Eq Trolox” value in series [3] stood at 1.49 Eq Trolox. In addition, half-maximal inhibition in series [4] (IC50) required 4.67 µM. The IC50 at 24 h in series [5] came to 147 µM. Further, in series [5], the IC50 at 48 h is 109 µM.

In the case of `CC1=C(/C=C/C(C)=N/Nc2nc(-c3ccc(O)c(O)c3)cs2)C(C)(C)CCC1.Cl` [Compound 5b, 4-(2-(2-((2E,3E)-4-(2,6,6-trimethylcyclohex-1-en-1-yl)but-3-en-2-ylidene) hydrazineyl)thiazol-4-yl)benzene-1,2-diol hydrochloride], the “% of ferrous ions chelation” value in series [1] (50 nM), in series [1] (100 nM), in series [1] (150 nM), in series [1] (175 nM) and in series [1] (200 nM) was “− (less than 5% chelation activity)” each time. Moreover, the “^1O2 quantum yield Φ(^1O2) of ICG in the presence of the scavenger” value in series [2] came to 11%. In addition, the “FRAP Eq Trolox” value in series [3] was 1.39 Eq Trolox. For the same compound, in series [4], the midpoint of inhibition, the IC50, lay at 5.03 µM. Besides, the IC50 at 24 h in series [5] came out at 167 µM. In addition, the IC50 at 48 h in series [5] is 39.6 µM.
